Results: patent US10022358B2, “Methods for improving muscle and heart function” (BioVentures, LLC, priority 2013, dated 2018)
Entries after “also recorded” stand apart in the source; their conditions may differ.

Columns and labels:
[1] = system: mitochondrial biogenesis; conditions: cited from earlier work
[2] = system: nitric oxide (NO) synthesis; test: Isotopic tracer study of plasma arginine and NO synthesis during citrulline ingestion (FIG. 5); assay type: in vivo, human
Description: FIG. 5 depicts plasma arginine responses (A) and nitric oxide (NO) synthesis rates (B) in basal period and during ingestion of 3 g of citrulline (CIT) sip ingestion over 3 hours in elderly (n=8, 77±9y, 93±4 kg) and young individuals (n=8, 27±9y, 70±5 kg).
Briefly, elderly (n=8, 77±9y, 93±4 kg) and young individuals (n=8, 27±9y, 70±5 kg) ingested 3 grams of citrulline over 3 hours and plasma arginine response and nitric oxide (NO) synthesis rates were quantified. […] Thus, oral ingestion of citrulline is very effective in increasing peripheral arginine concentration and NO synthesis in elderly subjects with heart failure.

[3] = system: carnitinepalmitoyltransferase (CPT)-1; test: CPT-1 activity in heart mitochondria of old animals treated with oral propionyl-L-carnitine (FIG. 8); assay type: in vivo, rodent; conditions: old hearts, oral treatment, p<0.02, n=6
From the text: FIG. 8 depicts graphs showing carnitinepalmitoyltransferase (CPT)-1activity decreases with age in mitochondria (2 vs 18 mos, p<0.004).
Appropriate regulation of energy substrate metabolism not only involves relatively normal insulin sensitivity, but also adequate number and functional capacity of mitochondria. One aspect of mitochondrial function is the rate of production of mitochondrial proteins. […] In addition to adequate protein content in mitochondria, it is necessary that substrates, particularly long-chain fatty acids, are not limited in their ability to enter the mitochondria, or in their complete oxidation once inside the mitochondria. The capacity to oxidize fatty acids is reduced in patients with major inflammatory responses due to reduced carnitine palmitoyltransferase 1 (CPT1) activity. Unimpaired capacity to oxidize fatty acids is important because the energy to perform low-intensity exercise, including activities of daily living that individuals with heart failure often struggle with, is provided by the oxidation of fatty acids.

[4] = system: patients with heart failure; conditions: dietary supplementation; cited from earlier work
[5] = system: muscle protein synthesis; conditions: cited from earlier work
[6] = 3 g citrulline sip ingestion over 3 hours, elderly and young

For CC(C)C[C@H](N)C(=O)O [leucine], the mitochondrial biogenesis [1] is listed as “stimulate mitochondrial biogenesis”.

With NC(=O)NCCC[C@H](N)C(=O)O [citrulline] the “nitric oxide (NO) synthesis rate” value [2, 6] was “stimulated production of NO”, the plasma arginine response [2, 6] was “effectively increased the concentration of arginine in the blood” and the “increase in NO synthesis in elderly” value ([2]; elderly with heart failure, 3 g citrulline over 3 hours) was “physiologically significant”.

For CCC(=O)O[C@H](CC(=O)[O-])C[N+](C)(C)C [propionyl-L-carnitine], the “CPT-1 activity in mitochondria” value [3] was “can restore CPT-1 activity to that of young hearts; also recorded: restored CPT to that of young hearts”.

In the case of N=C(N)NCCC[C@H](N)C(=O)O [arginine], the blood pressure [4] is given as “reduces blood pressure”, the “duration until exhaustion on a treadmill walk” value [4] is given as “increased duration until exhaustion” and the right ventricular function [4] is given as “improves right ventricular function”. The “effect on muscle protein synthesis when NO synthesis pharmacologically blocked” value [5] was “effective even when given when NO synthesis was pharmacologically blocked”.
